Reference: ChEMBL document CHEMBL3044831, “Docking study, in vitro anticancer screening and radiosensitizing evaluation of some new fluorine-containing quinoline and pyrimidoquinoline derivatives bearing a sulfonamide moiety” (Med Chem Res, 2011)

Tests used:
MCF7 [1] = assay: Cytotoxicity against Homo sapiens (human) MCF-7 cells assessed as surviving fraction at 100 uM after 48 hr by SRB assay relative to control; assay type: functional
MCF7 [2] = assay: Cytotoxicity against Homo sapiens (human) MCF7 cells assessed as surviving fraction at 25 uM after 48 hr by SRB assay relative to control; assay type: functional
MCF7 [3] = assay: Cytotoxicity against Homo sapiens (human) MCF-7 cells after 48 hr by SRB assay relative to control; assay type: functional, cell-based; conditions: MCF7, 48 h
MCF7 [4] = assay: Cytotoxicity against Homo sapiens (human) MCF-7 cells assessed as surviving fraction at 50 uM after 48 hr by SRB assay relative to control; assay type: functional
MCF7 [5] = assay: Cytotoxicity against Homo sapiens (human) MCF-7 cells assessed as surviving fraction at 10 uM after 48 hr by SRB assay relative to control; assay type: functional
MCF7 [6] = assay: Radiosensitizing activity against Homo sapiens (human) gamma-irradiated MCF-7 cells assessed as surviving fraction at 10 uM after 48 hr by SRB assay (reference value: 0.927 +/- 0.02); assay type: functional
MCF7 [7] = assay: Potentiation of gamma-irradiation-induced cytotoxicity against Homo sapiens (human) MCF-7 cells after 48 hr by SRB assay; assay type: functional, cell-based; conditions: MCF7, light or radiation study
MCF7 [8] = assay: Radiosensitizing activity against Homo sapiens (human) gamma-irradiated MCF-7 cells assessed as surviving fraction at 25 uM after 48 hr by SRB assay (reference value: 0.927 +/- 0.02); assay type: functional
MCF7 [9] = assay: Radiosensitizing activity against Homo sapiens (human) gamma-irradiated MCF-7 cells assessed as surviving fraction at 100 uM after 48 hr by SRB assay (reference value: 0.927 +/- 0.02); assay type: functional
MCF7 [10] = assay: Radiosensitizing activity against Homo sapiens (human) gamma-irradiated MCF-7 cells assessed as surviving fraction at 50 uM after 48 hr by SRB assay (reference value: 0.927 +/- 0.02); assay type: functional

SMILES | fold change (surviving fraction) (MCF7 [1]) | fold change (FC) (MCF7 [2]) | IC50 (MCF7 [3]) | fold change (FC) (MCF7 [4]) | fold change (FC) (MCF7 [5]) | fold change (FC) (MCF7 [6]) | IC50 (MCF7 [7]) | fold change (FC) (MCF7 [8]) | fold change (FC) (MCF7 [9]) | fold change (FC) (MCF7 [10])
CC(=O)CC(=O)NC1=C(C#N)C(c2ccc(F)cc2)C2=C(CC(C)(C)CC2=O)N1c1ccc(S(N)(=O)=O)cc1 (stereo not given) | 0.663 | 0.905 | > 100 µM | 0.76 | 0.919 | – | – | – | – | –
CC(=O)N(C(C)=O)C1=C(C#N)C(c2ccc(F)cc2)C2=C(CC(C)(C)CC2=O)N1c1ccc(S(N)(=O)=O)cc1 (stereo not given) | 0.498 | 0.733 | 79.7 µM | 0.455 | 0.987 | – | – | – | – | –
CC(=O)NC1=C(C#N)C(c2ccc(F)cc2)C2=C(CC(C)(C)CC2=O)N1c1ccc(S(N)(=O)=O)cc1 (stereo not given) | 0.483 | 0.763 | 85.9 µM | 0.598 | 0.882 | – | – | – | – | –
CC1(C)CC(=O)C2=C(C1)N(c1ccc(S(N)(=O)=O)cc1)C(N)=C(C#N)C2c1ccc(F)cc1 (stereo not given) | 0.482 | 0.562 | 71.8 µM | 0.427 | 0.855 | – | – | – | – | –
CC1(C)CC(=O)C2=C(C1)N(c1ccc(S(N)(=O)=O)cc1)c1ncnc(N=C=S)c1C2c1ccc(F)cc1 (stereo not given) | 0.534 | 0.755 | 85.6 µM | 0.487 | 0.922 | – | – | – | – | –
CCO/C=N/C1=C(C#N)C(c2ccc(F)cc2)C2=C(CC(C)(C)CC2=O)N1c1ccc(S(N)(=O)=O)cc1 (stereo not given) | 0.401 | 0.62 | 67.3 µM | 0.477 | 0.904 | 0.677 | 36 µM | 0.428 | 0.156 | 0.199
CCNC(=S)NC1=C(C#N)C(c2ccc(F)cc2)C2=C(CC(C)(C)CC2=O)N1c1ccc(S(N)(=O)=O)cc1 (stereo not given) | 0.609 | 0.852 | > 100 µM | 0.642 | 0.924 | – | – | – | – | –
CC1(C)CC(=O)C2=C(C1)N(c1ccc(S(N)(=O)=O)cc1)c1nc(CCl)[nH]c(=O)c1C2c1ccc(F)cc1 (stereo not given) | 0.768 | 0.77 | > 100 µM | 0.784 | 0.984 | – | – | – | – | –
CC1(C)CC(=O)C2=C(C1)N(c1ccc(S(N)(=O)=O)cc1)C(N)=C(C1=NCCN1)C2c1ccc(F)cc1 (stereo not given) | 0.581 | 0.679 | 87 µM | 0.423 | 0.873 | – | – | – | – | –
CC1(C)CC(=O)C2=C(C1)N(c1ccc(S(N)(=O)=O)cc1)C(N)=C(C(N)=O)C2c1ccc(F)cc1 (stereo not given) | 0.493 | 0.711 | 75.2 µM | 0.409 | 0.906 | – | – | – | – | –
CC1(C)CC(=O)C2=C(C1)N(c1ccc(S(N)(=O)=O)cc1)c1ncnc(Cl)c1C2c1ccc(F)cc1 (stereo not given) | 0.457 | 0.785 | 85.6 µM | 0.635 | 0.909 | – | – | – | – | –
CC1(C)CC(=O)C2=C(C1)N(c1ccc(S(N)(=O)=O)cc1)C(N1C(=O)CCC1=O)=C(C#N)C2c1ccc(F)cc1 (stereo not given) | 0.488 | 0.885 | 94.1 µM | 0.678 | 0.933 | – | – | – | – | –
CC1(C)CC(=O)C2=C(C1)N(c1ccc(S(N)(=O)=O)cc1)c1nc[nH]c(=O)c1C2c1ccc(F)cc1 (stereo not given) | 0.447 | 0.757 | 77.1 µM | 0.499 | 0.934 | – | – | – | – | –
CC1(C)CC(=O)C2=C(C1)N(c1ccc(S(N)(=O)=O)cc1)c1nc(CC#N)[nH]c(=O)c1C2c1ccc(F)cc1 (stereo not given) | 0.6 | 0.864 | > 100 µM | 0.662 | 0.976 | – | – | – | – | –
Cc1nc2c(c(=O)[nH]1)C(c1ccc(F)cc1)C1=C(CC(C)(C)CC1=O)N2c1ccc(S(N)(=O)=O)cc1 (stereo not given) | 0.425 | 0.654 | 69.8 µM | 0.494 | 0.768 | – | – | – | – | –
CC1(C)CC(=O)C2=C(C1)N(c1ccc(S(N)(=O)=O)cc1)c1nc[nH]c(=S)c1C2c1ccc(F)cc1 (stereo not given) | 0.608 | 0.901 | > 100 µM | 0.686 | 0.99 | – | – | – | – | –
CCOC(=O)Cn1cnc2c(c1=O)C(c1ccc(F)cc1)C1=C(CC(C)(C)CC1=O)N2c1ccc(S(N)(=O)=O)cc1 (stereo not given) | 0.572 | 0.898 | > 100 µM | 0.686 | 0.969 | – | – | – | – | –
CC1(C)CC(=O)C2=C(C1)N(c1ccc(S(N)(=O)=O)cc1)C(NC(=O)CCl)=C(C#N)C2c1ccc(F)cc1 (stereo not given) | 0.43 | 0.7 | 70.8 µM | 0.45 | 0.885 | – | – | – | – | –
CC1(C)CC(=O)C2=C(C1)N(c1ccc(S(N)(=O)=O)cc1)c1ncnc(N)c1C2c1ccc(F)cc1 (stereo not given) | 0.381 | 0.448 | 52.6 µM | 0.311 | 0.795 | 0.51 | 28.5 µM | 0.347 | 0.222 | 0.163
CC1(C)CC(=O)C2=C(C1)N(c1ccc(S(N)(=O)=O)cc1)c1ncnc(NN)c1C2c1ccc(F)cc1 (stereo not given) | 0.518 | 0.652 | 81.2 µM | 0.478 | 0.959 | – | – | – | – | –
